Results as given in US20230355566A1, “POTENTIATION OF HELMINTH TREATMENT” (Elanco Tiergesundheit AG, priority 2019, published 2023).

Assays:
[1] = test system: Fasciola hepatica (Sunny Corner isolate, Fashep-66), immature stage; test: Efficacy and synergy against immature stage of Fasciola hepatica in experimentally infected sheep (Example 3); type: in vivo; conditions: closantel 3.75 mg/kg, combination 40 and 3.75 mg/kg; for % Efficacy using arithmetic mean / % Efficacy using geometric mean: single oral treatment day 42, diamphenethide 40 mg/kg, vs untreated control; for Fluke Count, arithmetic mean / Fluke Count, geometric mean: single oral treatment day 42 after infection, diamphenethide 40 mg/kg, live fluke in liver day 91
Method: In the following examples, all animals were confirmed free of infection with F. hepatica and found clinically healthy by a veterinarian prior to enrollment in the study. Doses were administered orally from suitably sized disposable syringes. The fluke counts and body weights were log-transformed (after adding a constant of 1 to the fluke counts only) and the distribution of the transformed data checked to see if they satisfied the assumption of normal distribution. Differences between treatment groups were analyzed by analysis of variance methods (ANOVA), as the assumptions of normal distribution were satisfied for log-transformed fluke count and log-transformed bodyweight, as well as for (untransformed) fluke measurements. Arithmetic […]), geometric […]), median and ranges were summarized for fluke counts, fluke measurements and bodyweight. A constant of one was applied for calculation of geometric means of fluke counts. The percentage efficacy for each treated group was calculated as follows: […] where FCC is the arithmetic mean fluke count of the control group and FCT is the arithmetic mean fluke count of the treated group. […] Note that expected synergy is defined as: […] Administered Concurrently with Closantel Against the Immature Stage of Fasciola hepatica Infections in Sheep This study was to assess the efficacy of […] (40 mg/kg) given concurrently with closantel (3.75 mg/kg), […] alone (40 mg/kg), and closantel alone (3.75 mg/kg) against F. hepatica in sheep (3-4 month Merino lambs) with treatment on day 42. This was a controlled, blinded, randomized study. On day 0, the sheep were experimentally infected with a single isolate of approximately 200 Sunny Corner ([…]-66) isolate F. hepatica metacercariae. The required number of […] up in carboxymethyl cellulose. Syringes were checked post-infection for retained […]. The infection was administered orally and each infective dose was followed by water administered orally. The sheep were randomized into treatment groups on the basis of day 41 body weight and allocated to groups as denoted in Table 3.1. Body weight was determined one day prior to treatment. All treatments were measured by volume and rounded to the nearest 0.1 mL. On day 42, and before feeding, the individual animals were treated once only with the treatment in Table 3.1. Once the animals had been treated they were returned to their pens and fed within one hour. Untreated control animals were also fed at this time. The liver with gall bladder and bile ducts intact were recovered from each animal on day 91 and processed for F. hepatica counts. The assessment of efficacy was based on the number of live fluke removed from the liver.

[2] = test system: Fasciola hepatica (Oberon isolate, Fashep-65), early immature stage; test: Efficacy against early immature stage of Fasciola hepatica in experimentally infected sheep (Example 2); type: in vivo; conditions: closantel 10 mg/kg, combination 60 and 10 mg/kg
Method: In the following examples, all animals were confirmed free of infection with F. hepatica and found clinically healthy by a veterinarian prior to enrollment in the study. Doses were administered orally from suitably sized disposable syringes.
The fluke counts and body weights were log-transformed (after adding a constant of 1 to the fluke counts only) and the distribution of the transformed data checked to see if they satisfied the assumption of normal distribution. Differences between treatment groups were analyzed by analysis of variance methods (ANOVA), as the assumptions of normal distribution were satisfied for log-transformed fluke count and log-transformed bodyweight, as well as for (untransformed) fluke measurements.
Arithmetic means (Amean), geometric means (Gmean), median and ranges were summarized for fluke counts, fluke measurements and bodyweight. A constant of one was applied for calculation of geometric means of fluke counts.
The percentage efficacy for each treated group was calculated as follows:
% Efficacy=100×(FCC−FCT)/FCC
where FCC is the arithmetic mean fluke count of the control group and FCT is the arithmetic mean fluke count of the treated group. The formula was also applied using mean geometric fluke counts; these were calculated using log transformed data with 1 added as a constant to each fluke count and then subtracted following transformation.
Efficacy of Diamphenethide in Combination with Closantel in Oral Formulations Against the Early Immature Stage of Fasciola hepatica in Sheep
This study was to assess the efficacy of diamphenethide (60 mg/kg) given concurrently with closantel (10 mg/kg), diamphenethide alone (60 mg/kg), and closantel alone (10 mg/kg) against F. hepatica in sheep with treatment on day 14. This was a controlled, blinded, randomized study using […] Merino lambs.
On day 0, the sheep were experimentally infected with a target of 87 Oberon isolate (Fashep-65) F. hepatica metacercariae. The required number of metacercariae were prepared for infection in a water and 4% carboxymethylcellulose solution. Each infective dose was followed by water administered orally.
The sheep were randomized into treatment groups on the basis of day 11 body weight and allocated to groups as denoted in Table 2.1.
Body weight was determined on day 11 and doses were measured by volume and rounded to the nearest 0.1 mL. On day 14, and before feeding, the individual animals were treated once only with the Treatment in Table 2.1. Once the animals had been treated they were returned to their pens and fed within one hour. Untreated control animals were also fed at this time.
The liver with gall bladder and common bile duct intact were recovered on day 91 or 92 from each animal and processed for F. hepatica counts. […]

liver flukes = conditions: cited from earlier work
[3] = deacylation to DAMD; cited from earlier work
[4] = single oral treatment day 14, diamphenethide 60 mg/kg, vs untreated control
[5] = single oral treatment day 14 after infection, diamphenethide 60 mg/kg, live fluke in liver day 91 or 92

SMILES	% Efficacy using arithmetic mean [1] [%]	% Efficacy using geometric mean [1] [%]	Fluke Count, arithmetic mean [1]	Fluke Count, geometric mean [1]	% Efficacy using arithmetic mean [2, 4] [%]	% Efficacy using geometric mean [2, 4] [%]	Fluke Count, arithmetic mean [2, 5]	Fluke Count, geometric mean [2, 5]	Activity against early immature flukes (liver flukes; flukes up to 6 weeks of age)	Activity against flukes as they develop to maturity (liver flukes; maturing flukes)	Metabolism [3]
Cc1cc(C(C#N)c2ccc(Cl)cc2)c(Cl)cc1NC(=O)c1cc(I)cc(I)c1O (stereo not drawn) [Closantel, N-[5-chloro-4-[(4-chlorophenyl)cyanomethyl]-2-methylphenyl]-2-hydroxy-3,5-diiodobenzamide]	40.1	40.7	54.0	51.6	–	–	–	–	–	–	–
CC(=O)Nc1ccc(OCCOCCOc2ccc(NC(C)=O)cc2)cc1 [Diamphenethide, N-[4-[2-[2-(4-acetamidophenoxy)ethoxy]ethoxy]phenyl]acetamide]	36.1	41.5	57.6	50.9	98.3	98.4	0.3	0.3	highly effective	progressively lower activity	rapidly metabolized by deacylation
